Paper PMC11352961, “Peptide dendrimers transfecting CRISPR/Cas9 plasmid DNA: optimization and mechanism” (RSC Chemical Biology, 2024)
Bridge positions count the residues as written; N and C are the ends. Square brackets hold non-standard residues; d marks the D form. Side chains are listed from the residue outwards. Peptide text beside a SMILES is read from it. I, II: the chains in the order shown. * marks the point of attachment. Stearoyl = CCCCCCCCCCCCCCCCCC(=O)*; Palmitoyl = CCCCCCCCCCCCCCCC(=O)*

Legend:
HEK293 cells = assay: Cell viability by PrestoBlue assay after transfection, HEK cells; type: cell-based; conditions: 4 h
HeLa cells = assay: Cell viability by PrestoBlue assay after transfection, HeLa cells; type: cell-based; conditions: 4 h

Row | Compound | % viability HEK cells (HEK293 cells) | % viability HeLa cells (HeLa cells)
1 | CCCCCCCCCCCCCCCCCC(=O)NCCCC[C@@H](NC(=O)[C@@H](CCCCNC(=O)[C@@H](CC(C)C)NC(=O)[C@@H](CCCCN)NC(=O)[C@@H](CCCCNC(=O)[C@@H](CC(C)C)NC(=O)[C@@H](CCCCN)NC(=O)[C@@H](CCCCNC(=O)[C@@H](CC(C)C)NC(=O)[C@H](N)CCCCN)NC(=O)[C@@H](CC(C)C)NC(=O)[C@H](N)CCCCN)NC(=O)[C@@H](CC(C)C)NC(=O)[C@@H](CCCCN)NC(=O)[C@@H](CCCCNC(=O)[C@@H](CC(C)C)NC(=O)[C@H](N)CCCCN)NC(=O)[C@@H](CC(C)C)NC(=O)[C@H](N)CCCCN)NC(=O)[C@@H](CC(C)C)NC(=O)[C@@H](CCCCN)NC(=O)[C@@H](CCCCNC(=O)[C@@H](CC(C)C)NC(=O)[C@@H](CCCCN)NC(=O)[C@@H](CCCCNC(=O)[C@@H](CC(C)C)NC(=O)[C@H](N)CCCCN)NC(=O)[C@@H](CC(C)C)NC(=O)[C@H](N)CCCCN)NC(=O)[C@@H](CC(C)C)NC(=O)[C@@H](CCCCN)NC(=O)[C@@H](CCCCNC(=O)[C@@H](CC(C)C)NC(=O)[C@H](N)CCCCN)NC(=O)[C@@H](CC(C)C)NC(=O)[C@H](N)CCCCN)C(=O)N[C@H](C)C(N)=O [Z30] (I: H-[dK][dL][dK]([dL-dK])[dK][dL][dK][dK][dL][dK][dK](Stearoyl)[dA]-NH2 / II: H-[dK][dL][dK]([dL-dK])[dK][dL][dK][dK][dL] / III: H-[dK][dL][dK]([dL-dK])[dK][dL] / IV: H-[dK][dL][dK]([dL-dK])[dK][dL]; amide I:6-IV:C, I:9-II:C, II:6-III:C) | 75 ± 1% | 91 ± 8%
2 | CCCCCCCCCCCCCCCCCC(=O)NCCCC[C@@H](NC(=O)[C@@H](CCCCNC(=O)[C@@H](CC(C)C)NC(=O)[C@@H](CC(C)C)NC(=O)[C@@H](CCCCNC(=O)[C@@H](CC(C)C)NC(=O)[C@@H](CCCCN)NC(=O)[C@@H](CCCCNC(=O)[C@@H](CC(C)C)NC(=O)[C@H](N)CCCCN)NC(=O)[C@@H](CC(C)C)NC(=O)[C@H](N)CCCCN)NC(=O)[C@@H](CC(C)C)NC(=O)[C@@H](CCCCN)NC(=O)[C@@H](CCCCNC(=O)[C@@H](CC(C)C)NC(=O)[C@H](N)CCCCN)NC(=O)[C@@H](CC(C)C)NC(=O)[C@H](N)CCCCN)NC(=O)[C@@H](CC(C)C)NC(=O)[C@@H](CC(C)C)NC(=O)[C@@H](CCCCNC(=O)[C@@H](CC(C)C)NC(=O)[C@@H](CCCCN)NC(=O)[C@@H](CCCCNC(=O)[C@@H](CC(C)C)NC(=O)[C@H](N)CCCCN)NC(=O)[C@@H](CC(C)C)NC(=O)[C@H](N)CCCCN)NC(=O)[C@@H](CC(C)C)NC(=O)[C@@H](CCCCN)NC(=O)[C@@H](CCCCNC(=O)[C@@H](CC(C)C)NC(=O)[C@H](N)CCCCN)NC(=O)[C@@H](CC(C)C)NC(=O)[C@H](N)CCCCN)C(N)=O [Z31] (I: H-[dK][dL][dK]([dL-dK])[dK][dL][dK][dL][dL][dK][dK](Stearoyl)-NH2 / II: H-[dK][dL][dK]([dL-dK])[dK][dL][dK][dL][dL] / III: H-[dK][dL][dK]([dL-dK])[dK][dL] / IV: H-[dK][dL][dK]([dL-dK])[dK][dL]; amide I:6-IV:C, I:9-II:C, II:6-III:C) | 96 ± 2% | 91 ± 6%
3 | CCCCCCCCCCCCCCCCCC(=O)NCCCC[C@@H](NC(=O)[C@@H](CCCCNC(=O)[C@@H](CC(C)C)NC(=O)[C@@H](CC(C)C)NC(=O)[C@@H](CCCCNC(=O)[C@@H](CC(C)C)NC(=O)[C@@H](CC(C)C)NC(=O)[C@@H](CCCCNC(=O)[C@@H](CC(C)C)NC(=O)[C@H](N)CCCCN)NC(=O)[C@@H](CC(C)C)NC(=O)[C@H](N)CCCCN)NC(=O)[C@@H](CC(C)C)NC(=O)[C@@H](CC(C)C)NC(=O)[C@@H](CCCCNC(=O)[C@@H](CC(C)C)NC(=O)[C@H](N)CCCCN)NC(=O)[C@@H](CC(C)C)NC(=O)[C@H](N)CCCCN)NC(=O)[C@@H](CC(C)C)NC(=O)[C@@H](CC(C)C)NC(=O)[C@@H](CCCCNC(=O)[C@@H](CC(C)C)NC(=O)[C@@H](CC(C)C)NC(=O)[C@@H](CCCCNC(=O)[C@@H](CC(C)C)NC(=O)[C@H](N)CCCCN)NC(=O)[C@@H](CC(C)C)NC(=O)[C@H](N)CCCCN)NC(=O)[C@@H](CC(C)C)NC(=O)[C@@H](CC(C)C)NC(=O)[C@@H](CCCCNC(=O)[C@@H](CC(C)C)NC(=O)[C@H](N)CCCCN)NC(=O)[C@@H](CC(C)C)NC(=O)[C@H](N)CCCCN)C(N)=O [Z32] (I: H-[dK][dL][dK]([dL-dK])[dL][dL][dK][dL][dL][dK][dK](Stearoyl)-NH2 / II: H-[dK][dL][dK]([dL-dK])[dL][dL][dK][dL][dL] / III: H-[dK][dL][dK]([dL-dK])[dL][dL] / IV: H-[dK][dL][dK]([dL-dK])[dL][dL]; amide I:6-IV:C, I:9-II:C, II:6-III:C) | 111 ± 1% | 97 ± 4%
4 | CCCCCCCCCCCCCCCC(=O)NCCCC[C@@H](NC(=O)[C@@H](CCCCNC(=O)[C@@H](CC(C)C)NC(=O)[C@@H](CCCNC(=N)N)NC(=O)[C@@H](CCCCNC(=O)[C@@H](CC(C)C)NC(=O)[C@@H](CCCNC(=N)N)NC(=O)[C@@H](CCCCNC(=O)[C@@H](CC(C)C)NC(=O)[C@H](N)CCCNC(=N)N)NC(=O)[C@@H](CC(C)C)NC(=O)[C@H](N)CCCNC(=N)N)NC(=O)[C@@H](CC(C)C)NC(=O)[C@@H](CCCNC(=N)N)NC(=O)[C@@H](CCCCNC(=O)[C@@H](CC(C)C)NC(=O)[C@H](N)CCCNC(=N)N)NC(=O)[C@@H](CC(C)C)NC(=O)[C@H](N)CCCNC(=N)N)NC(=O)[C@@H](CC(C)C)NC(=O)[C@@H](CCCNC(=N)N)NC(=O)[C@@H](CCCCNC(=O)[C@@H](CC(C)C)NC(=O)[C@@H](CCCNC(=N)N)NC(=O)[C@@H](CCCCNC(=O)[C@@H](CC(C)C)NC(=O)[C@H](N)CCCNC(=N)N)NC(=O)[C@@H](CC(C)C)NC(=O)[C@H](N)CCCNC(=N)N)NC(=O)[C@@H](CC(C)C)NC(=O)[C@@H](CCCNC(=N)N)NC(=O)[C@@H](CCCCNC(=O)[C@@H](CC(C)C)NC(=O)[C@H](N)CCCNC(=N)N)NC(=O)[C@@H](CC(C)C)NC(=O)[C@H](N)CCCNC(=N)N)C(N)=O [Z33] (I: H-[dR][dL][dK]([dL-dR])[dR][dL][dK][dR][dL][dK][dK](Palmitoyl)-NH2 / II: H-[dR][dL][dK]([dL-dR])[dR][dL][dK][dR][dL] / III: H-[dR][dL][dK]([dL-dR])[dR][dL] / IV: H-[dR][dL][dK]([dL-dR])[dR][dL]; amide I:6-IV:C, I:9-II:C, II:6-III:C) | 84 ± 1% | 93 ± 6%
5 | CCCCCCCCCCCCCCCCCC(=O)NCCCC[C@@H](NC(=O)[C@@H](CCCCNC(=O)[C@@H](CC(C)C)NC(=O)[C@@H](CCCNC(=N)N)NC(=O)[C@@H](CCCCNC(=O)[C@@H](CC(C)C)NC(=O)[C@@H](CCCNC(=N)N)NC(=O)[C@@H](CCCCNC(=O)[C@@H](CC(C)C)NC(=O)[C@H](N)CCCNC(=N)N)NC(=O)[C@@H](CC(C)C)NC(=O)[C@H](N)CCCNC(=N)N)NC(=O)[C@@H](CC(C)C)NC(=O)[C@@H](CCCNC(=N)N)NC(=O)[C@@H](CCCCNC(=O)[C@@H](CC(C)C)NC(=O)[C@H](N)CCCNC(=N)N)NC(=O)[C@@H](CC(C)C)NC(=O)[C@H](N)CCCNC(=N)N)NC(=O)[C@@H](CC(C)C)NC(=O)[C@@H](CCCNC(=N)N)NC(=O)[C@@H](CCCCNC(=O)[C@@H](CC(C)C)NC(=O)[C@@H](CCCNC(=N)N)NC(=O)[C@@H](CCCCNC(=O)[C@@H](CC(C)C)NC(=O)[C@H](N)CCCNC(=N)N)NC(=O)[C@@H](CC(C)C)NC(=O)[C@H](N)CCCNC(=N)N)NC(=O)[C@@H](CC(C)C)NC(=O)[C@@H](CCCNC(=N)N)NC(=O)[C@@H](CCCCNC(=O)[C@@H](CC(C)C)NC(=O)[C@H](N)CCCNC(=N)N)NC(=O)[C@@H](CC(C)C)NC(=O)[C@H](N)CCCNC(=N)N)C(=O)N[C@H](C)C(N)=O [Z35] (I: H-[dR][dL][dK]([dL-dR])[dR][dL][dK][dR][dL][dK][dK](Stearoyl)[dA]-NH2 / II: H-[dR][dL][dK]([dL-dR])[dR][dL][dK][dR][dL] / III: H-[dR][dL][dK]([dL-dR])[dR][dL] / IV: H-[dR][dL][dK]([dL-dR])[dR][dL]; amide I:6-IV:C, I:9-II:C, II:6-III:C) | 72 ± 5% | 94 ± 6%
6 | CCCCCCCCCCCCCCCCCC(=O)NCCCC[C@@H](NC(=O)[C@@H](CCCCNC(=O)[C@@H](CC(C)C)NC(=O)[C@@H](CC(C)C)NC(=O)[C@@H](CCCCNC(=O)[C@@H](CC(C)C)NC(=O)[C@@H](CCCNC(=N)N)NC(=O)[C@@H](CCCCNC(=O)[C@@H](CC(C)C)NC(=O)[C@H](N)CCCNC(=N)N)NC(=O)[C@@H](CC(C)C)NC(=O)[C@H](N)CCCNC(=N)N)NC(=O)[C@@H](CC(C)C)NC(=O)[C@@H](CCCNC(=N)N)NC(=O)[C@@H](CCCCNC(=O)[C@@H](CC(C)C)NC(=O)[C@H](N)CCCNC(=N)N)NC(=O)[C@@H](CC(C)C)NC(=O)[C@H](N)CCCNC(=N)N)NC(=O)[C@@H](CC(C)C)NC(=O)[C@@H](CC(C)C)NC(=O)[C@@H](CCCCNC(=O)[C@@H](CC(C)C)NC(=O)[C@@H](CCCNC(=N)N)NC(=O)[C@@H](CCCCNC(=O)[C@@H](CC(C)C)NC(=O)[C@H](N)CCCNC(=N)N)NC(=O)[C@@H](CC(C)C)NC(=O)[C@H](N)CCCNC(=N)N)NC(=O)[C@@H](CC(C)C)NC(=O)[C@@H](CCCNC(=N)N)NC(=O)[C@@H](CCCCNC(=O)[C@@H](CC(C)C)NC(=O)[C@H](N)CCCNC(=N)N)NC(=O)[C@@H](CC(C)C)NC(=O)[C@H](N)CCCNC(=N)N)C(N)=O [Z36] (I: H-[dR][dL][dK]([dL-dR])[dR][dL][dK][dL][dL][dK][dK](Stearoyl)-NH2 / II: H-[dR][dL][dK]([dL-dR])[dR][dL][dK][dL][dL] / III: H-[dR][dL][dK]([dL-dR])[dR][dL] / IV: H-[dR][dL][dK]([dL-dR])[dR][dL]; amide I:6-IV:C, I:9-II:C, II:6-III:C) | 87 ± 2% | 92 ± 6%
